Assay results reported in PubChem BioAssay (NCI).
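Cells were grown in 96-well plates and exposed to each compound for 48 hours at five concentrations; endpoints were interpolated linearly between bracketing concentrations, or set to the highest concentration if not reached. The concentration for 50% growth inhibition is given as GI50. TGI marks complete inhibition of growth.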

Assays:
Assay in all cases: inhibition of tumour cell growth, NCI panel, 48 h
[1] = system: COLO 205 colon
[2] = system: SK-OV-3 ovarian
[3] = system: HOP-62 NSCLC
[4] = system: NCI-H460 lung
[5] = system: HS 578T breast
[6] = system: NCI/ADR-RES ovarian
[7] = system: HCT-15 colon
[8] = system: SF-268 CNS
[9] = system: PC-3 prostate
[10] = system: SNB-75 CNS
[11] = system: SNB-19 CNS
[12] = system: CAKI-1 renal
[13] = system: A549 NSCLC
[14] = system: SR leukemia
[15] = system: LOX IMVI melanoma
[16] = system: DU-145 prostate
[17] = system: SF-295 CNS
[18] = system: U251 CNS
[19] = system: IGROV1 ovarian
[20] = system: MDA-MB-435
[21] = system: RXF 393 renal
[22] = system: NCI-H226 lung
[23] = system: NCI-H522 lung
[24] = system: ACHN renal
[25] = system: SN12C renal
[26] = system: A498 renal
[27] = system: SK-MEL-5 melanoma
[28] = system: K-562 leukemia
[29] = system: TK-10 renal
[30] = system: OVCAR-5 ovarian
[31] = system: HCC-2998 colon
[32] = system: KM12 colon
[33] = system: SF-539 CNS
[34] = system: SW-620 colon
[35] = system: HOP-92 NSCLC
[36] = system: MCF7 breast
[37] = system: HL-60(TB) leukemia
[38] = system: UACC-257 melanoma
[39] = system: M14 melanoma
[40] = system: OVCAR-8 ovarian
[41] = system: UO-31 renal
[42] = system: CCRF-CEM leukemia
[43] = system: UACC-62 melanoma
[44] = system: RPMI-8226 leukemia
[45] = system: HT29 colon
[46] = system: HCT-116 colon
[47] = system: OVCAR-4 ovarian
[48] = system: SK-MEL-2 melanoma
[49] = system: MDA-MB-231 breast
[50] = system: 786-0 renal
[51] = system: BT-549 breast
[52] = system: MALME-3M melanoma
[53] = system: MOLT-4 leukemia
[54] = system: T-47D breast
[55] = system: OVCAR-3 ovarian
[56] = system: SK-MEL-28 melanoma
[57] = system: NCI-H23 lung

CC(=O)Nc1ccc2c(c1)c(C1=C(c3cn(C)c4ccccc34)C(=O)NC1=O)cn2C
GI50 [1]: 1.3 µM
TGI [1]: > 25 µM
GI50 [2]: 1.22 µM
TGI [2]: > 25 µM
GI50 [3]: 1.98 µM
TGI [3]: > 25 µM
GI50 [4]: 0.986 µM
TGI [4]: > 25 µM
GI50 [5]: 0.596 µM
TGI [5]: > 6.79 µM
GI50 [6]: 1.58 µM
TGI [6]: > 25 µM
GI50 [7]: 1.02 µM
TGI [7]: > 25 µM
GI50 [8]: 1.41 µM
TGI [8]: > 25 µM
GI50 [9]: 0.754 µM
TGI [9]: 22.1 µM
GI50 [10]: 0.465 µM
TGI [10]: > 6.67 µM
GI50 [11]: > 18.2 µM
TGI [11]: > 25 µM
GI50 [12]: 1.07 µM
TGI [12]: 24.3 µM
GI50 [13]: 1.65 µM
TGI [13]: > 25 µM
GI50 [14]: 0.675 µM
TGI [14]: > 17 µM
GI50 [15]: 1.63 µM
TGI [15]: > 25 µM
GI50 [16]: 4.02 µM
TGI [16]: > 25 µM
GI50 [17]: 1.18 µM
TGI [17]: > 25 µM
GI50 [18]: 1.16 µM
TGI [18]: > 25 µM
GI50 [19]: 16.4 µM
TGI [19]: > 25 µM
GI50 [20]: 0.198 µM
TGI [20]: > 25 µM
GI50 [21]: 0.608 µM
TGI [21]: 2.68 µM
GI50 [22]: 3.1 µM
TGI [22]: > 25 µM
GI50 [23]: 0.702 µM
TGI [23]: > 6.59 µM
GI50 [24]: 1.57 µM
TGI [24]: > 25 µM
GI50 [25]: 1.66 µM
TGI [25]: > 25 µM
GI50 [26]: 0.538 µM
TGI [26]: 1.79 µM
GI50 [27]: 1.45 µM
TGI [27]: > 25 µM
GI50 [28]: 0.926 µM
TGI [28]: > 25 µM
GI50 [29]: 4.21 µM
TGI [29]: > 25 µM
GI50 [30]: > 25 µM
TGI [30]: > 25 µM
GI50 [31]: > 11.2 µM
TGI [31]: > 25 µM
GI50 [32]: 1.16 µM
TGI [32]: > 25 µM
GI50 [33]: 0.671 µM
TGI [33]: 1.97 µM
GI50 [34]: 1.02 µM
TGI [34]: > 25 µM
GI50 [35]: 0.807 µM
TGI [35]: 12 µM
GI50 [36]: 0.852 µM
TGI [36]: > 15.7 µM
GI50 [37]: 0.913 µM
TGI [37]: 4.9 µM
GI50 [38]: > 21.6 µM
TGI [38]: > 25 µM
GI50 [39]: 1.5 µM
TGI [39]: > 25 µM
GI50 [40]: 2.68 µM
TGI [40]: > 25 µM
GI50 [41]: 1.16 µM
TGI [41]: > 25 µM
GI50 [42]: 0.991 µM
TGI [42]: > 25 µM
GI50 [43]: 1.15 µM
TGI [43]: > 25 µM
GI50 [44]: 1.22 µM
TGI [44]: > 22.1 µM
GI50 [45]: 0.925 µM
TGI [45]: > 25 µM
GI50 [46]: 1.09 µM
TGI [46]: > 25 µM
GI50 [47]: 2.54 µM
TGI [47]: > 17.6 µM
GI50 [48]: 0.94 µM
TGI [48]: 5.74 µM
GI50 [49]: 5 µM
TGI [49]: > 25 µM
GI50 [50]: 1.28 µM
TGI [50]: > 25 µM
GI50 [51]: 1.55 µM
TGI [51]: 14.8 µM
GI50 [52]: > 9.93 µM
TGI [52]: > 25 µM
GI50 [53]: 2.4 µM
TGI [53]: 13.8 µM
GI50 [54]: 1.66 µM
TGI [54]: > 25 µM
GI50 [55]: 0.723 µM
TGI [55]: 2.16 µM
GI50 [56]: 3.62 µM
TGI [56]: > 25 µM
GI50 [57]: 5.45 µM
TGI [57]: > 25 µM
